Results taken from patent US8691768B2, “Methods of determining delta opioid receptor subtypes” (The Regents of the University of California, priority 2008, dated 2014).
Structures can show the parent of a compound that is named as a salt. Where two headings read alike, the source gives them in different places.

Experiments:
[1] = system: Lewis rats, ventral tegmental area (VTA); assay: Ethanol self-administration (two-bottle continuous access) after microinjection into the VTA; assay type: in vivo; conditions: 0.2 mM microinjected into VTA
Protocol: (§1) Male Lewis rats (Harlan Laboratories, Indianapolis, Ind.) weighing between 275-300 g were individually housed in a temperature controlled colony room (21° C.) maintained on a reversed light/dark cycle 12L:12D cycle (lights off at 10 A.M., lights on at 10 P.M.). All experiments were performed during the dark portion of the cycle. Food and water was provided ad libitum.
(§2) Ethanol was administered via a two-bottle continuous access, free-choice paradigm in which one bottle contained 10% ETOH (v/v) and the other bottle contained water. Sucrose was never added to the ethanol solution. The amount of ETOH and water consumed was measured at the same time daily (10 A.M.). […] Animals were weighed daily. Bottles were identical and their positions were counterbalanced and rotated daily. Change in drinking was calculated by subtracting the amount of drinking (mg/kg) on the day following treatment from the amount of drinking (mg/kg) on the day prior to treatment.
Animals were anesthetized and maintained on isoflurane (0.5 l/min) as needed for the duration of surgery. Animals were placed in a stereotaxic frame and were implanted with bilateral 26-gauge stainless steel chronic guide cannulas (Plastincs One, Roanoke, Va.) into the VTA (AP, −5.8; ML, ±0.5; DV, −7.0) based on the atlas of Paxinos and Watson (1997, The rat brain in sterotaxic coordinates, compact, Ed 3. San Diego: Academic). Cannulas were secured to the skull with dental cement. At the end of the surgical procedure, animals were treated with penicillin and topical antibiotics. A stainless steel dummy cannula (Plastics One) was inserted into each guide cannula and remained in place when the guide cannulas were not in use. Animals were allowed a 1 week recovery period before behavioral testing.
Each injection was made using a 1 μl syringe (Hamilton, Reno, Nev.) attached to 20 cm of PE 50 tubing connected to a 33-gauge injection cannula (Plastics One). Microinjections of 0.5 μl volumes were given at a rate of 0.5 μl/min using a syringe pump (kd Scientific, Hollister, Mass.) into each side of the VTA, except for bicuculline injections, where 0.25 μl was injected per side. Injection cannulas extended 2 mm beyond guide cannulas and were left in place for 1 min following microinjections to minimize the backflow of drug solution. In addition to drug microinjections, physiological saline microinjections were made in every rat to measure the effect of the injection manipulation alone on drinking Drug injections were randomized and counterbalanced. Change in drinking due to drug microinjections was calculated by comparing both the previous day's consumption (“baseline”) and to saline injection. At the conclusion of the experiment, animals were anesthetized with pentobarbital and perfused intracardially through the ascending aorta with 0.1 M phosphate buffered saline followed by 10% formalin. Brains were sectioned coronally at 50 μm, mounted and stained with cresyl violet. Only animals with confirmed injection sites within the VTA were included. No behavioral differences were observed between animals with anterior compared with posterior cannula placements.
For behavioral experiments, DPDPE (10mM; Sigma, St. Louis, Mo.), TIPP-ψ (5 μM; NIDA, Bethesda, Md.), Bicuculline (1 mM; Sigma), DAMGO (0.2 mM; Sigma), and CTOP (10 mM; Tocris, Ellisville, Mo.) were prepared in physiological saline for microinjection into the VTA. For electrophysiology, all drugs were applied by bath perfusion. Stock solutions were made and diluted in artificial CSF immediately before application. All chemicals were obtained from Sigma or Tocris except TIPP-ψ, which was acquired from NIDA.
Results are presented as mean±SEM where appropriate. For behavioral data, drinking was analyzed using 24 h time points. Raw drinking data were used for paired Student's t test comparisons probing drug effects on drinking compared with baseline or saline injections, a more conservative comparison than analyzing normalized data. […]

[2] = system: C57BL/6 mice; assay: Limited access 2-bottle choice drinking paradigm (water or 10% ethanol); assay type: in vivo; conditions: for ethanol consumption (drinking behavior): 5 mg/kg s.c. alone, 4 hour 2-bottle choice
Protocol: Male C57BL/6 mice (20-23 g, Taconic) were individually housed in ventilated PLEXIGLAS® cages at ambient temperature (21° C.) in a room maintained on a reversed 12L:12D cycle (lights off at 10.00, lights on at 22.00). Food and water was provided ad libitum. The mice were given time to acclimatize to the individual housing conditions and reverse light cycle before the start of the experiments. Mice were weighed weekly. All procedures were pre-approved by the Gallo Center Institutional Animal Care and Use Committee and were in accordance with National Institutes of Health Guide for the Care and Use of Laboratory Animal.
From Monday through Friday, mice were presented with a 2-bottle choice (water or 10% ethanol) for a 4 hour period (11.00-15.00) while in the dark cycle. Outside the 2-bottle choice period, all mice had unlimited access to water. All fluids were presented in 100-ml graduated glass cylinders with stainless-steel drinking spouts inserted through two grommets in front of the cage. Bottles were weighed to the nearest decigram (0.1 g) at the start and end of the 2-bottle choice period. The positions of the tubes containing water and ethanol were reversed daily to limit the effects of positional preference. Mice (9 per group) were injected with drugs subcutaneously (s.c.) on Friday 30 minutes before the start of the 2-bottle choice period.
(§3) Ethanol and sucrose solutions were prepared in tap water using 95% (vol/vol) ethanol (Gold Shield Chemical Co., Hayward, Calif., USA). Naltriben mesylate (NTB), 7-benzylidenenaltrexone maleate (BNTX) were purchased from Tocris (MO, USA). TAN-67 dihydrobromide, naltrindole hydrochloride (NTI) and naltrexone hydrochloride (NTX) were from Sigma-Aldrich (MO, USA). All compounds were dissolved in saline, with the exception of BNTX and NTB, which were dissolved in 5% DMSO. All drugs were made up immediately prior to injection and were administered s.c. at a volume of 10 ml/kg.
Baseline values were determined by taking the average of the consumption over the three days prior to injection. Statistical analysis was performed using Prism software (GraphPad, San Diego, Calif.). Significance was determined by means of one-way ANOVA or two-way ANOVA (repeated measures). A post-hoc Newman-Keuls (one-way ANOVA) or Bonferroni (two-way ANOVA) test was used when a significant overall effect was found (p<0.05). (*, p<0.05; **, p<0.01; ***, p<0.001).

[3] = clinical studies; cited from earlier work
[4] = numerous animal studies; cited from earlier work
[5] = Rewarding effect of TAN-67 (Example 4, method not given); assay type: in vivo; conditions: therapeutically effective dose
[6] = system: C57BL/6 mice; assay: Sucrose intake (natural reward); conditions: mouse, in vivo
Protocol: as §3

[7] = system: C57BL/6 mice; assay: Locomotor activity assay; assay type: in vivo; conditions: assayed 30 minutes after injection for 4 hours
Protocol: To determine the effect of DOP-R subtype-selective drugs on mouse locomotion, the following locomotor activity assay was performed. On the testing day, mice (n=8) were habituated to the locomotor boxes for 30 minutes prior to the behavioral assay. Mice were injected s.c. with vehicle (saline or 5% DMSO), 25 mg/kg TAN-67 or 6 mg/kg NTB and placed back in the locomotor boxes. Locomotor activity was assayed 30 minutes after injection for 4 hours using Accuscan Digipro activity monitors (Accuscan, Columbus, Ohio). All mice were tested during their light phase between the hours of 9.00 and 14.00. Mice were placed into custom-made acrylic boxes that were 21×21 cm and 28 cm tall. One acrylic box was used per single Accuscan monitor (Accuscan). Activity monitors were themselves housed inside sound-attenuating chambers (Med-Associates, St Albans, Vt.) equipped with lights and fans, both of which were turned on during the testing session. To eliminate variability due to handling and novelty, on the two days before the testing day, mice were habituated to the locomotor boxes for 30 minutes injected with saline and placed in the locomotor box for an additional 30 minutes.

[8] = system: chronically drinking rats; assay: Drinking of chronically drinking rats after systemic administration; assay type: in vivo
Protocol: as §1, §2

[9] = system: GABAA IPSCs in VTA neurons; assay: Slice electrophysiology, whole-cell patch-clamp of GABAA IPSCs in VTA neurons; assay type: cell-based, Lewis rats; conditions: animals treated with 5 mg/kg morphine IP twice daily for 7 days
[10] = system: DOR; assay: Immunocytochemistry of DOR expression in VTA tissue; assay type: in vivo, Lewis rats; conditions: chronic treatment, once daily 0.5 mg/kg for 20 days
Protocol: Materials and Methods: Male Lewis rats (250-300 g) were housed as in Example 8. In the first part of the experiment, rats received once daily injections of 0.5 mg/kg morphine for 20 days, after which they were sacrificed and the VTA tissue was examined for DOR expression. Standard immunocytochemical methods were used with a DOR-targeted antibody (SC9111) purchased from Santa Cruz Biotechnology, Inc. For electrophysiology experiments, rats received twice daily injections, 10 hours apart, of 5 mg/kg morphine IP for 7 days.

[11] = biological target: delta opioid receptor (DOP-R) (rat) (UniProt P33533); assay: cell-based or functional assay
delta opioid receptor (DOP-R) (rat), sequence (P33533 whole entry, stated change not applied): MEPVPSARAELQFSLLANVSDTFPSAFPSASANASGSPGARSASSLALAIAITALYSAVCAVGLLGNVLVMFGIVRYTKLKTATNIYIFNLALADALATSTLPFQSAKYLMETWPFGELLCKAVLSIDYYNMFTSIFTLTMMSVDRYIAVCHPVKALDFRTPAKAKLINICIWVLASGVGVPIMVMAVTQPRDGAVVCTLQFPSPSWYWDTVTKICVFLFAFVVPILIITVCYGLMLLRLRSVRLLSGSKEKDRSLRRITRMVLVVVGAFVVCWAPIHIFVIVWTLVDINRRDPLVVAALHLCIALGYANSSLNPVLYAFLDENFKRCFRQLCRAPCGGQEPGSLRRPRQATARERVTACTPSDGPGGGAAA

C[C@@H](NC(=O)[C@@H](N)Cc1ccc(O)cc1)C(=O)NCC(=O)N(C)[C@@H](Cc1ccccc1)C(=O)NCCO [DAMGO]
drinking (EtOH) [1]: did not affect drinking

Oc1ccc2c3c1O[C@H]1c4[nH]c5ccccc5c4C[C@@]4(O)[C@@H](C2)N(CC2CC2)CC[C@]314 [NTI, naltrindole hydrochloride]
ethanol consumption ([2]; 10 or 15 mg/kg s.c.): did not alter | ethanol preference ([2]; 10 or 15 mg/kg s.c.): did not alter

O=C1CC[C@@]2(O)[C@H]3Cc4ccc(O)c5c4[C@@]2(CCN3CC2CC2)[C@H]1O5 [NTX, naltrexone hydrochloride]
ethanol consumption ([2]; 1.5 mg/kg s.c., 30 min before 4 hour 2-bottle choice): decrease in ethanol consumption | ethanol consumption (drinking behavior) [2]: only moderate effects | ethanol consumption [3]: decrease ethanol consumption | ethanol consumption [4]: decrease ethanol consumption

CN1CCC2(c3cccc(O)c3)Cc3nc4ccccc4cc3CC2C1 (stereo not drawn) [TAN-67, 2-methyl-4 alpha alpha-(3-hydroxyphenyl)-1,2,3,4,4a,5,12,12 alpha alpha-octahydro-quinolino[2,3,3,-g]isoquinoline]
rewarding by itself [5]: not rewarding | ethanol consumption ([2]; 12.5 mg/kg s.c. alone): no effect | ethanol consumption ([2]; dose dependence, s.c.): dose-dependent decrease | ethanol preference ([2]; dose dependence, s.c.): dose-dependent decrease | sucrose intake [6]: neither TAN-67 [F(1,16)=0.057, p=0.81] nor NTB [F(1,16)=0.62, p=0.44]had an affect | locomotor activity compared to vehicle treated animals ([7]; 25 mg/kg s.c.): did not show any significant difference

COC(=O)/C=C/C(=O)N[C@@H]1CC[C@@]2(O)[C@H]3Cc4ccc(O)c5c4[C@@]2(CCN3CC2CC2)[C@H]1O5 [beta-FNA, β-funaltrexamine]
drinking [8]: decrease their drinking

CN1CC[C@]23c4c5ccc(O)c4O[C@H]2[C@@H](O)C=C[C@H]3[C@H]1C5 [morphine]
electrically evoked GABA release on activating DOR1 [9]: inhibits electrically evoked GABA release | DOR expression in the VTA [10]: increases

(2-D-penicillamine, 5-D-penicillamine)-enkephalin (DPDPE) (peptide)
saturating dose for inhibition of evoked IPSCs (dose-response in the presence of 1 µM CTAP) [11]: 1 µM

Naltriben mesylate [NTB]
ethanol consumption (drinking behavior) [2]: no effect | ethanol consumption ([2]; dose dependence, s.c.): dose dependently decreased | ethanol preference ([2]; dose dependence, s.c.): dose dependently decreased | sucrose intake [6]: neither TAN-67 [F(1,16)=0.057, p=0.81] nor NTB [F(1,16)=0.62, p=0.44]had an affect | locomotor activity compared to vehicle treated animals ([7]; 6 mg/kg s.c.): did not show any significant difference

TIPP-ψ (peptide)
evoked IPSC amplitude, decrease from baseline, antagonist alone (n=3) [11]: 6.8% | spontaneous IPSC amplitude, decrease, antagonist alone (n=2) [11]: 2.6% | spontaneous IPSC frequency, decrease, antagonist alone (n=2) [11]: 8.6%
